Measured values reported in ChEMBL document CHEMBL1201862, “PubChem BioAssay data set” (2004).
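Five compound concentrations were applied to cells in 96-well plates for 48 hours; endpoints were derived by simple linear interpolation of the resulting dose-response curve. The concentration for 50% growth inhibition is given as GI50.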 Activity calls are given as the source filed them. Rule as the data show it: active = GI50 up to about 1.1 µM and inactive = higher.

Legend:
Experiment in all cases: growth of human tumour cells (NCI), 48 h
EKVX = system: EKVX
KM12 = system: KM12
OVCAR-5 = system: OVCAR-5
SNB-19 = system: SNB-19
LOX IMVI = system: LOX IMVI
UACC-257 = system: UACC-257
MOLT-4 = system: MOLT-4
HOP-62 = system: HOP-62
ACHN = system: ACHN
IGROV-1 = system: IGROV-1
NCI-H226 = system: NCI-H226
NCI-H23 = system: NCI-H23
SR = system: SR
Hs-578T = system: Hs-578T
SF-539 = system: SF-539
SK-MEL-2 = system: SK-MEL-2
SK-OV-3 = system: SK-OV-3
HCT-15 = system: HCT-15
MCF7 = system: MCF7
HCC 2998 = system: HCC 2998

SMILES	GI50 (EKVX)	GI50 (KM12)	GI50 (OVCAR-5)	GI50 (SNB-19)	GI50 (LOX IMVI)	GI50 (UACC-257)	GI50 (MOLT-4)	GI50 (HOP-62)	GI50 (ACHN)	GI50 (IGROV-1)	GI50 (NCI-H226)	GI50 (NCI-H23)	GI50 (SR)	GI50 (Hs-578T)	GI50 (SF-539)	GI50 (SK-MEL-2)	GI50 (SK-OV-3)	GI50 (HCT-15) [µM]	GI50 (MCF7)	GI50 (HCC 2998)
CC(C)(C)Nc1noc(=O)n1C(C)(C)C	> 100 µM (inactive)	> 100 µM (inactive)	> 100 µM (inactive)	> 100 µM (inactive)	> 100 µM (inactive)	> 100 µM (inactive)	> 100 µM (inactive)	> 100 µM (inactive)	> 100 µM (inactive)	> 100 µM (inactive)	> 100 µM (inactive)	> 100 µM (inactive)	> 100 µM (inactive)	> 100 µM (inactive)	> 100 µM (inactive)	> 100 µM (inactive)	> 100 µM (inactive)	> 100	> 100 µM (inactive)	
Nc1ncc(Sc2ccccc2C(=O)O)s1	> 100 µM (inactive)	> 100 µM (inactive)	> 100 µM (inactive)	> 100 µM (inactive)	> 100 µM (inactive)	> 100 µM (inactive)	> 100 µM (inactive)	> 100 µM (inactive)	> 100 µM (inactive)	> 100 µM (inactive)	> 100 µM (inactive)	> 100 µM (inactive)	> 100 µM (inactive)	> 100 µM (inactive)	> 100 µM (inactive)	> 100 µM (inactive)		> 100	> 100 µM (inactive)	
C[C@H](CC[C@@H](O)C(C)(C)O)[C@H]1CC[C@@]2(C)[C@@H]3CC=C4[C@@H](CC[C@H](OC5OC(CO)C(O)C(O)C5O)C4(C)C)[C@]3(C)C(=O)C[C@]12C (some centres not stated)	80.4 µM (inactive)	> 100 µM (inactive)	> 100 µM (inactive)	62.5 µM (inactive)	39 µM (inactive)	33.7 µM (inactive)	21.1 µM (inactive)	36.8 µM (inactive)	32.7 µM (inactive)	19.8 µM (inactive)	> 100 µM (inactive)	> 100 µM (inactive)		37.3 µM (inactive)	> 100 µM (inactive)	26.3 µM (inactive)	31 µM (inactive)	67.9	51.5 µM (inactive)	89.7 µM (inactive)
CCOC(=O)/C=C\c1c(Cl)n(-c2ccccc2)c(=O)n(-c2ccccc2)c1=O	21 µM (inactive)	19.1 µM (inactive)	20.6 µM (inactive)	16 µM (inactive)	22.6 µM (inactive)	18.6 µM (inactive)	38.5 µM (inactive)	20.8 µM (inactive)	20.7 µM (inactive)	17.6 µM (inactive)	20.7 µM (inactive)	21.7 µM (inactive)		27.3 µM (inactive)	17.2 µM (inactive)	17.7 µM (inactive)	22.2 µM (inactive)	19.8	22.6 µM (inactive)	18.5 µM (inactive)
COc1cc2c(cc1O)C1Cc3ccc(OC)c(O)c3C[N+]1(C)CC2 (configuration not stated)	> 100 µM (inactive)	> 100 µM (inactive)	> 100 µM (inactive)	> 100 µM (inactive)	> 100 µM (inactive)		> 100 µM (inactive)	> 100 µM (inactive)	> 100 µM (inactive)	> 100 µM (inactive)	> 100 µM (inactive)	> 100 µM (inactive)		> 100 µM (inactive)	> 100 µM (inactive)	> 100 µM (inactive)	> 100 µM (inactive)	> 100	> 100 µM (inactive)	> 100 µM (inactive)
O=C1C(=CNc2ccccc2Cl)C(=O)N(c2ccccc2)C(=O)N1c1ccccc1	> 100 µM (inactive)	> 100 µM (inactive)	> 100 µM (inactive)	> 100 µM (inactive)	> 100 µM (inactive)	> 100 µM (inactive)	> 100 µM (inactive)	> 100 µM (inactive)	> 100 µM (inactive)	> 100 µM (inactive)	> 100 µM (inactive)	> 100 µM (inactive)		80.4 µM (inactive)	> 100 µM (inactive)	27.9 µM (inactive)	> 100 µM (inactive)	> 100	> 100 µM (inactive)	> 100 µM (inactive)
C/C=C\C(CC(=O)NCCC1CN(S(=O)(=O)c2ccc(C)cc2)c2ccccc21)CC(=O)OC (configuration not stated)	> 100 µM (inactive)	> 100 µM (inactive)	> 100 µM (inactive)	> 100 µM (inactive)		> 100 µM (inactive)	> 100 µM (inactive)	> 100 µM (inactive)	> 100 µM (inactive)	> 100 µM (inactive)		> 100 µM (inactive)		> 100 µM (inactive)		> 100 µM (inactive)	> 100 µM (inactive)	> 100	> 100 µM (inactive)	> 100 µM (inactive)
Oc1ccc(Cl)cc1Sc1cc(Cl)ccc1O [FENTICLOR]	15.5 µM (inactive)	17.5 µM (inactive)	13.4 µM (inactive)	12.9 µM (inactive)	8.55 µM (inactive)	6.65 µM (inactive)	7.53 µM (inactive)	16.7 µM (inactive)	8.65 µM (inactive)	15.1 µM (inactive)	20.5 µM (inactive)	5.04 µM (inactive)	17.1 µM (inactive)	4.98 µM (inactive)	17.7 µM (inactive)	10.5 µM (inactive)	20.5 µM (inactive)	8.65	17.3 µM (inactive)	
